Like-named read-outs stand apart in the source and are kept apart here.

What all share (assay type): biochemical
In one test the target is T1, COX-2 (Homo sapiens, UniProt P35354).
T1 construct: purchased BioVision (Milpitas, CA, USA) K547-100
T1 sequence (P35354 18-604): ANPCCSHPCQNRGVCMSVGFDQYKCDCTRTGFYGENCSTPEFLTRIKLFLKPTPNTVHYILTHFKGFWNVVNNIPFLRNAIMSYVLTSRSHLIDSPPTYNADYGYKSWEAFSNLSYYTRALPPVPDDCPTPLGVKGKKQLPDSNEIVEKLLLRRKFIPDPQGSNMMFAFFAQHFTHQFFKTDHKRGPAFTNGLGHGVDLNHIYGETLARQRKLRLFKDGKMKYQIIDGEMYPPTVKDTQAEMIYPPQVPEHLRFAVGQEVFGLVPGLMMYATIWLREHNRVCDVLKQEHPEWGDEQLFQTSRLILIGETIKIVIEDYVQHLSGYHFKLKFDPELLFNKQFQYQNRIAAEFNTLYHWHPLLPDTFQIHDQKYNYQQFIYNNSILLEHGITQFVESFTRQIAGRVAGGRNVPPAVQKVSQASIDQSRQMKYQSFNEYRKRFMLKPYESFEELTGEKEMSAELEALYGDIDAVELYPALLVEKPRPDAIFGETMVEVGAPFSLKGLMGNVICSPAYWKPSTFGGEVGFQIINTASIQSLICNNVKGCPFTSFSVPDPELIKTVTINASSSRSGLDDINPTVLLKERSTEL
Description: Fluorimetric COX-2 inhibition screening kit (BioVision). Here is the method: (§1) Inhibitory potency of the compounds on COX-1 and COX-2 enzymes was determined by using fluorimetric COX-1 and COX-2 inhibition screening kits from BioVision (Milpitas, CA, USA). The experimental protocol as described in the guides provided by the supplier was followed. All of the pipetting were performed using a robotized system to increase speed, accuracy and precision. Fluorescence intensities of the samples were kinetically measured at 25 °C for 5–10 min by monitoring emissions at 587 nm after excitation at 535 nm. Two appropriate points (T1 and T2) in the linear range of the plot were chosen and the corresponding fluorescence values (RFU1 and RFU2) were obtained. The slope for all samples including Enzyme Control (EC) was calculated by dividing the net ΔRFU (RFU2 − RFU1) values by the time ΔT (T2 − T1). Percentage of relative inhibition was calculated by using the following equation:% Relative inhibition = (Slope of EC − Slope of S/Slope of EC) × 100 where S is the term representing the tested compound [51, 52]. […] The IC50 values were calculated using the plots of the enzyme activity against concentrations by applying regression analyses.

The target of the next test is T2, COX-1 (Ovis aries, UniProt P05979).
T2 construct: purchased BioVision (Milpitas, CA, USA) K548-100
In words: Fluorimetric COX-1 inhibition screening kit (BioVision). The procedure: as §1

The next test addresses T3, human recombinant MAO-A (Homo sapiens, UniProt P21397).
T3 sequence (P21397 1-527): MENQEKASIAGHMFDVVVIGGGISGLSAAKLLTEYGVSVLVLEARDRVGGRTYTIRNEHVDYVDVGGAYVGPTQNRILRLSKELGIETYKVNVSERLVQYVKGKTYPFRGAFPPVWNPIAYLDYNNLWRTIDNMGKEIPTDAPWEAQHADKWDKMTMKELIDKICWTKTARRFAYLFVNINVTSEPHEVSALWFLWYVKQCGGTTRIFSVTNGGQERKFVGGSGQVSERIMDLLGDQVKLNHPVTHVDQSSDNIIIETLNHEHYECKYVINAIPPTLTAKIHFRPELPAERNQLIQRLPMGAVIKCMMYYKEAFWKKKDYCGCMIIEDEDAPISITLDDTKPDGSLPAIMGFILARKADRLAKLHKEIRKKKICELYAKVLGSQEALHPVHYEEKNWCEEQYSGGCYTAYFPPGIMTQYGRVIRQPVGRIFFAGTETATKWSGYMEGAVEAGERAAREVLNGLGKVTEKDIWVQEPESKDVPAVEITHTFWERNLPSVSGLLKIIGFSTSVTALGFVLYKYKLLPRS
In words: MAO inhibition assay (kynuramine, fluorimetric). The procedure: (§2) Enzyme activity assays were performed according to the procedure reported by Matsumoto et al. with slight modifications. In order to prevent the destructive effect of light on MAO enzymes, the assays were performed in 96-well black plates. Phosphate buffer solution (0.1 M, pH = 7.4) was used for preparation of stock solutions (5 mg/mL) of both human recombinant MAO-A and MAO-B enzymes. […] The addition of the test compound solution was followed by addition of either MAO-A or MAO-B enzyme (50 μL/well) solutions. After 10 min of incubation at 37 °C, kynuramine (50 μL/well) was added and enzyme-substrate reaction was initiated. The plate was incubated for 20 min at 37 °C and then reaction was terminated by addition of 2 N NaOH (75 μL/well). The fluorimetric reads from the top was performed at 310 nm excitation and 380 nm emission wavelengths.

A further test concerns the target T4, human recombinant MAO-B (Homo sapiens, UniProt P27338).
T4 sequence (P27338 1-520): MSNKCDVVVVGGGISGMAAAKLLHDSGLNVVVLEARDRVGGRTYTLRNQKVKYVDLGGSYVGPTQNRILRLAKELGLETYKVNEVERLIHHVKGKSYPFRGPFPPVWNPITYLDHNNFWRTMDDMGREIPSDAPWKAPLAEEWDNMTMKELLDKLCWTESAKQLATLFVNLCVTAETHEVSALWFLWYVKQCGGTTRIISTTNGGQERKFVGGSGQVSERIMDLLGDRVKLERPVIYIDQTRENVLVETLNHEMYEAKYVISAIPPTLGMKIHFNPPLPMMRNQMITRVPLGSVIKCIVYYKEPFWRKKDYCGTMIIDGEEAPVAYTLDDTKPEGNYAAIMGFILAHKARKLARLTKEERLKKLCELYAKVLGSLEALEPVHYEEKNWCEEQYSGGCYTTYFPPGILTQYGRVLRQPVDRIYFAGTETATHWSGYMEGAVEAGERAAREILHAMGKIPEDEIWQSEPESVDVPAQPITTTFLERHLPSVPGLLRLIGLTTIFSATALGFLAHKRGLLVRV
Description: MAO inhibition assay (kynuramine, fluorimetric). Here is the method:
as §2

Another test addresses AChE (Homo sapiens, UniProt P22303). The procedure: Inhibition potency of the test compounds against AChE was determined using Ellman’s method. Enzyme solutions were prepared in gelatin solution (1%, w/v), at the concentration of 2.5 units/mL. […] AChE solution (20 µL/well) and test solution (20 µL/well) were added to phosphate buffer solution (140 µL/well, pH 8.0 ± 0.1), and incubated at 25 °C for 5 min. […] The production of the yellow anion was recorded by multimode microplate reader for 10 min at 412 nm. As a control, an identical solution of the enzyme without the inhibitor was processed. The control and the inhibitor readings were corrected with blank-readings. All processes were assayed in four independent determinations.

AChE, sequence (P22303 32-614): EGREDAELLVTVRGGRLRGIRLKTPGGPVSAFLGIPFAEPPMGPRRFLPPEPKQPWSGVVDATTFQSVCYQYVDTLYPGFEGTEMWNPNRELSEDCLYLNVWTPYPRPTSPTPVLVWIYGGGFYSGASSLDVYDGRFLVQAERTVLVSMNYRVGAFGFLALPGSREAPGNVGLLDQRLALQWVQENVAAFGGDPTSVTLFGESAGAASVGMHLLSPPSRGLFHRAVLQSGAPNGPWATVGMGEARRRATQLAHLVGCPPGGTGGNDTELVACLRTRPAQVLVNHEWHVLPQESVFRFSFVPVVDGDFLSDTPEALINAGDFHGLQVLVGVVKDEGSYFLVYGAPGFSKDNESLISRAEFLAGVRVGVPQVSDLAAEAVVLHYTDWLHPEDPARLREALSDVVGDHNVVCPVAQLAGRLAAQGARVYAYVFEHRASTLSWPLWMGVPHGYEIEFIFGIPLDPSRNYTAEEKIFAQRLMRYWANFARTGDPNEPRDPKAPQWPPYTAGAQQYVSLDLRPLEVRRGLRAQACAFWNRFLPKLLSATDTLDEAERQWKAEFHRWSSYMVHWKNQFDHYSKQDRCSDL
T2 sequence (P05979 25-600): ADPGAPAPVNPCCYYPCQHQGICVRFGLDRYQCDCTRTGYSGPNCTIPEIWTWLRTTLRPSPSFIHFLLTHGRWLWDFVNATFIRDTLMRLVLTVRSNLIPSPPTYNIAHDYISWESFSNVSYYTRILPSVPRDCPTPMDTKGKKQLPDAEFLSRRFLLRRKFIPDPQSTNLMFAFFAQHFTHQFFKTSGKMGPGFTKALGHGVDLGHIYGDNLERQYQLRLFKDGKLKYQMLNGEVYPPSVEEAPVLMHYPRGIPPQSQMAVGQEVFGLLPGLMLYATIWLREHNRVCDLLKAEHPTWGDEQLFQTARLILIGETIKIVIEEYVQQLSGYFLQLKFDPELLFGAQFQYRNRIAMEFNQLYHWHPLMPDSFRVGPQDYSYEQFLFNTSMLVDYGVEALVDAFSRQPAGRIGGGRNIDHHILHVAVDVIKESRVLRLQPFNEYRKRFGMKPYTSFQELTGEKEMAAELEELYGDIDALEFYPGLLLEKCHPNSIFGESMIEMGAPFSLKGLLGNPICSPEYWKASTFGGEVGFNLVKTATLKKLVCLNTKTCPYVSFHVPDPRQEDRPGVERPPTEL

With `Brc1ccc(-c2nc3ccccc3n2CCN2CCOCC2)cc1` [Compound 2g, 2-(4-Bromophenyl)-1-[2-(morpholin-4-yl)ethyl]-1H-benzimidazole], the “COX-2 Inhibition (%)” value at COX-2 (10^-3 M) is listed as 16.30%; on COX-2 (10^-4 M), 19.03%. Also, the figures for the “COX-1 Inhibition (%)” value on COX-1 (10^-3 M) and on COX-1 (10^-4 M) were 29.47% and 21.74%, respectively. Besides, the “MAO-A Inhibition (%)” value on human recombinant MAO-A (10^-3 M) came out at 30.85%; at human recombinant MAO-A (10^-4 M) it was 22.29%. Besides, the “MAO-B Inhibition (%)” value on human recombinant MAO-B (10^-3 M) came to 38.63%; on human recombinant MAO-B (10^-4 M), 30.87%. Moreover, the “AChE Inhibition (%)” value on AChE (10^-3 M) and at AChE (10^-4 M) was 13.04% throughout.
With `CSc1ccc(-c2nc3ccccc3n2CCN2CCOCC2)cc1` [Compound 2n, 2-(4-Methylthiophenyl)-1-[2-(morpholin-4-yl)ethyl]-1H-benzimidazole], the “COX-2 Inhibition (%)” value was determined as 30.08% on COX-2 (10^-3 M) and 33.46% at COX-2 (10^-4 M). Besides, the “COX-1 Inhibition (%)” value on COX-1 (10^-3 M) is 39.42%; on COX-1 (10^-4 M) it was 32.78%. Further, the “MAO-A Inhibition (%)” value amounted to 32.73% at human recombinant MAO-A (10^-3 M) and 24.05% at human recombinant MAO-A (10^-4 M). Also, the results for the “MAO-B Inhibition (%)” value on human recombinant MAO-B (10^-3 M) and at human recombinant MAO-B (10^-4 M) were 34.75% and 32.24%, respectively. In addition, the “AChE Inhibition (%)” value at AChE (10^-3 M) and on AChE (10^-4 M) was 12.21% in each case.
On to `FC(F)(F)c1ccc(-c2nc3ccccc3n2CCN2CCOCC2)cc1` [Compound 2l, 2-(4-Trifluoromethylphenyl)-1-[2-(morpholin-4-yl)ethyl]-1H-benzimidazole], for which the “COX-2 Inhibition (%)” value is listed as 21.00% at COX-2 (10^-3 M) and 34.62% on COX-2 (10^-4 M). Also, the “COX-1 Inhibition (%)” value is on record as 36.87% on COX-1 (10^-3 M) and 33.46% at COX-1 (10^-4 M). Also, the results for the “MAO-A Inhibition (%)” value at human recombinant MAO-A (10^-3 M) and on human recombinant MAO-A (10^-4 M) were 38.51% and 30.16%, respectively. Also, the “MAO-B Inhibition (%)” value is 47.66% on human recombinant MAO-B (10^-3 M) and 38.09% at human recombinant MAO-B (10^-4 M). The “AChE Inhibition (%)” value on AChE (10^-3 M) and on AChE (10^-4 M) was 33.88% each time.
`c1ccc(-c2ccc(-c3nc4ccccc4n3CCN3CCOCC3)cc2)cc1` [Compound 2o, 2-(1,1’-Biphenyl)-1-[2-(morpholin-4-yl)ethyl]-1H-benzimidazole]: the “COX-2 Inhibition (%)” value is 30.76% on COX-2 (10^-3 M) and 21.48% at COX-2 (10^-4 M). In addition, the “COX-1 Inhibition (%)” value at COX-1 (10^-3 M) turned out to be 27.63%; at COX-1 (10^-4 M), 34.00%. Further, the “MAO-A Inhibition (%)” value is listed as 31.85% on human recombinant MAO-A (10^-3 M) and 26.19% at human recombinant MAO-A (10^-4 M). For the same compound, the entries for the “MAO-B Inhibition (%)” value at human recombinant MAO-B (10^-3 M) and on human recombinant MAO-B (10^-4 M) were 31.12% and 23.54%, respectively. The “AChE Inhibition (%)” value at AChE (10^-3 M) and on AChE (10^-4 M) was 6.33% each time.
Turning to `c1ccc(COc2ccc(-c3nc4ccccc4n3CCN3CCOCC3)cc2)cc1` [Compound 2f, 2-(4-Benzyloxyphenyl)-1-[2-(morpholin-4-yl)ethyl]-1H-benzimidazole], the figures for the IC50 against COX-2 and on COX-1 were 44.9 µM and 43.2 µM, respectively. For the same compound, the “COX-2 Inhibition (%)” value stood at 61.23% at COX-2 (10^-3 M) and 60.20% on COX-2 (10^-4 M). Besides, the “COX-2 inhibition at the initial concentrations” value at COX-2 (10^−3 M and 10^−4 M) is “more than 50%”. Moreover, the inhibition at 10 µM on COX-2 (10^−5 M) was 47 ± 1.13%; against COX-1 (10^−5 M), 45.4 ± 0.99%. For the same compound, the inhibition at 1 µM on COX-2 (10^−6 M, read-out: COX 2 Inhibition %) is 40.2 ± 1.24%; against COX-1 (10^−6 M) it was 42.1 ± 0.87%. Further, the inhibition at 0.1 µM stood at 35.6 ± 0.91% at COX-2 (10^−7 M) and 34.2 ± 0.76% against COX-1 (10^−7 M). Further, the inhibition at 0.01 µM on COX-2 (10^−8 M) turned out to be 31.5 ± 0.84%; against COX-1 (10^−8 M), 32.7 ± 0.78%. Also, the inhibition at 0.001 µM was found to be 28.7 ± 0.63% at COX-2 (10^−9 M) and 29.9 ± 0.68% on COX-1 (10^−9 M). For the same compound, the “COX-1 Inhibition (%)” value at COX-1 (10^-3 M) worked out at 75.37%; at COX-1 (10^-4 M) it was 79.08%. In addition, at COX-1 (10^−3 M and 10^−4 M), the “COX-1 inhibition at the initial concentrations” value is listed as “more than 50%”. The entries for the “MAO-A Inhibition (%)” value on human recombinant MAO-A (10^-3 M) and at human recombinant MAO-A (10^-4 M) were 32.14% and 20.65%, respectively. In addition, the figures for the “MAO-B Inhibition (%)” value at human recombinant MAO-B (10^-3 M) and on human recombinant MAO-B (10^-4 M) were 39.32% and 31.14%, respectively. Moreover, the “AChE Inhibition (%)” value at AChE (10^-3 M) and on AChE (10^-4 M) was 15.75% in each case.
For `Fc1ccc(-c2nc3ccccc3n2CCN2CCOCC2)cc1` [Compound 2d, 2-(4-Fluorophenyl)-1-[2-(morpholin-4-yl)ethyl]-1H-benzimidazole], the “COX-2 Inhibition (%)” value on COX-2 (10^-3 M) was determined as 21.08%; at COX-2 (10^-4 M), 28.46%. For the same compound, the “COX-1 Inhibition (%)” value is 31.87% on COX-1 (10^-3 M) and 29.36% at COX-1 (10^-4 M). For the same compound, the “MAO-A Inhibition (%)” value at human recombinant MAO-A (10^-3 M) is given as 39.79%; at human recombinant MAO-A (10^-4 M), 33.11%. Also, the figures for the “MAO-B Inhibition (%)” value at human recombinant MAO-B (10^-3 M) and on human recombinant MAO-B (10^-4 M) were 45.29% and 38.96%, respectively. The “AChE Inhibition (%)” value on AChE (10^-3 M) and on AChE (10^-4 M) was 16.20% each time.
